“And” between values parts separate entries of the source, which are not always exact repeats. Equal values may be shown once.

The target in one data set is T1, CYP1A2 (Homo sapiens, UniProt P05177).
T1 sequence (P05177 1-516): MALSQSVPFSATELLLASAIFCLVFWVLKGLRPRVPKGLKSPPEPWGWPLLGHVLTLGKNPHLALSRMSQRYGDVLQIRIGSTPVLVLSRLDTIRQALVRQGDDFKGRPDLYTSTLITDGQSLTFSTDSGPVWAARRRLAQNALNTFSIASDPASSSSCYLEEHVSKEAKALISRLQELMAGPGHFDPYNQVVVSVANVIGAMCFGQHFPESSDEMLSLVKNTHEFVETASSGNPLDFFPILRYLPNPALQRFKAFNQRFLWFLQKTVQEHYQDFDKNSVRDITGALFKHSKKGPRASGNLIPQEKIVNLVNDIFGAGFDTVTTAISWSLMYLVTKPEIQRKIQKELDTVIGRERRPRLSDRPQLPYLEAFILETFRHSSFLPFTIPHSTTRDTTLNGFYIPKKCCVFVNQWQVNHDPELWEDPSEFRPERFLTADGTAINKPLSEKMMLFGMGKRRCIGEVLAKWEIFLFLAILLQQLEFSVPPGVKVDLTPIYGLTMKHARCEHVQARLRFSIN
Put plainly: CYP1A2 activity, phenacetin metabolism by HPLC.

In the next data set the test system is day 44 aggregates. Put plainly: CYP expression in day 44 aggregates with Wnt and MEK/Erk inhibition plus cAMP agonist. The class given is cell-based, human. To be noted: together with cAMP, relative to adult liver.
In the next data set the test system is Notch pathway. As to the kind of experiment: Hepatoblast co-culture with OP9 in presence of Notch antagonist GSI. Type of data set: cell-based, human. As to the method:
RT-qPCR-based expression analysis of ALB and CK19 in the hepatoblast-derived cells following co-culture with OP9 in media supplemented with HGF (20 ng/ml), EGF (50 ng/ml), and TGFβ1 (5 ng/ml) in the presence or absence of the gamma-secretase inhibitor (GSI), an antagonist of the Notch pathway. Cells were harvested and analyzed at days 30, 33, and 36 of culture.
FIG. 15B is an RT-qPCR based expression analysis of the Notch target genes HES1, HES5 and HEY1 in hepatoblast-derived cells following culture with or without OP9. Cells were assayed at day 36 of culture. […] This value was set as 1.
To investigate the differentiation of cholangiocyte-like cells, H9-derived day 27 hepatic progenitors were co-cultured with OP 9 cells (Notch signaling donor) in the presence of HGF 20 ng/ml and EGF 50 ng/ml. The H9-derived day 27 hepatic progenitors were derived as in Example 1. When the hepatic progenitor cells received Notch signaling activation from OP-9 cells, the albumin positive cells were completely diminished and turned into CK19 positive cells with an organized branching appearance (FIG. 10a, b).
(§1) To investigate the effect of Notch signaling on cholangiocyte development, we co-cultured the hepatoblast population (day 25) with OP9 stromal cells that are known to express different Notch ligands including Jagged-1^4,5. […] To overcome this problem, we generated 3D aggregates from the day 25 monolayer cells and cultured them on the OP9 stromal cells.
(FIG. 22) Aggregates derived from both lines generated branched structures consisting of CK19^+ALB cells following co-culture with the OP9 stromal cells. As observed with the H9-derived populations, the downregulation of ALB expression and the development of these structures were NOTCH dependent events.

The subject of the next data set is Notch signaling. Put plainly: 3D gel culture of chimeric hepatoblast/OP9 aggregates in presence of GSI. Type of data set: cell-based, human. As to conditions: 3D collagen/Matrigel gel. How it is done: H9-derived day 25 hepatoblast were mixed (aggregated) with OP9 stromal cells at a ratio of 4:1, in low cluster culture dishes for 48 hours. The chimeric aggregates were embedded in a mixture of type 1 collagen (1.2 mg/ml) and Matrigel (40%) to establish a 3D gel culture. The cultures were maintained over 2 weeks in the media containing of HGF, EGF and TGFβ1 in the presence or absence of GSI.
FIG. 16C is an RT-qPCR based expression analyses of pooled structures that developed in the 3D gels. The cultures were harvested at day 44 and the cells analyzed for expression of genes indicative of the hepatocyte (ALB, AFP and CYP3A7) and cholangiocyte (CK19, Sox9 and CFTR) lineages.
To determine if the branching observed in the OP9 co-cultures is indicative of the initial stages of bile duct development, we next established a culture system to promote the growth of 3D cellular structures. With this approach, chimeric aggregates consisting of day 25 hESC-derived cells and OP9 stromal cells (GFP^+) were cultured in a media mixture consisting of 1.2 mg/ml collagen, 40% Matrigel and HGF, EGF and TGFβ1 (FIG. 23a). Within 2 weeks of culture in these conditions, the aggregates underwent dramatic morphological changes and formed either tubular structures, hollow cysts or a mixture of both (FIG. 16a,b). The cysts were the most abundant structures in these cultures (FIG. 16b). […] The cells in the ducts also expressed the Cystic fibrosis transmembrane conductance regulator (CFTR), a transmembrane channel that is first expressed in the adult biliary tract. As with ZO-1, the CFTR protein was detected predominantly on the apical side of the duct-like structure. Western blot analyses confirmed the presence of the protein in the population generated from the chimeric aggregates (FIG. 23D). […] The lack of hepatic markers, including ALB, AFP and CYP3A7 and the upregulation of expression the cholangiocyte markers CK19, SOX9 and CFTR in these structures was confirmed by RT-qPCR analyses (FIG. 16c). […]

Data set [1] relates to hPSC-derived hepatoblast aggregates. As to the kind of experiment: Growth factor addition to hepatoblast aggregates co-cultured on OP9 stroma. Type of data set: cell-based, human. As to conditions: for development of CK19+ clusters: OP9 co-culture.
Source text: as §1

A further data set has as its system hepatic aggregates. As to the kind of experiment: Culture of hepatic aggregates at cAMP stage, HGF and OSM. The class given is cell-based, human. How it is done:
The cell aggregates were cultured in HGF, Dex and OSM until day 32 at which point cAMP was added. […] In some experiments, HGF was also removed from the cultures when cAMP analog and/or cAMP agonist is added.

The test system of a further data set is smad2. To be noted: versus SB431 542; cited from earlier work.
The subject of a further data set is human and mouse ESC. To be noted: cited from earlier work.
The mark [2] stands for this setting: OP9 co-culture with HGF, EGF, TGFβ1.

For the compound `Cc1c(OCC(F)(F)F)ccnc1C[S+]([O-])c1nc2ccccc2[nH]1` (stereo not drawn) [lansoprazole], the “increase in CYP1A2 activity on induction” value on CYP1A2 (8-Br-cAMP-treated hESC-derived cells, induction 72 hours) came out at 3.4 fold. The “inducibility of CYP1A2 activity” value is on record as “inducible” at CYP1A2 (H9-derived cells) and “not inducible” at CYP1A2 (cells not treated with 8-Br-cAMP). Besides, at CYP1A2 (iPSC-derived cells), the “inducible CYP1A2 activity” value was “not detectable”. The “induction of CYP1A2 activity” value on CYP1A2 (two independent primary hepatocyte samples) is 18 fold and 9 fold.

As for `O=C(NOC[C@H](O)CO)c1ccc(F)c(F)c1Nc1ccc(I)cc1F` [MEK/ErK inhibitor], the “levels of CYP3A4 expression” value in the data set on day 44 aggregates was “comparable to those found in the adult liver”.

`CC(C)C[C@H](NC(=O)[C@H](Cc1ccccc1)C[C@@H](O)[C@H](Cc1ccccc1)NC(=O)OC(C)(C)C)C(=O)N[C@@H](Cc1ccccc1)C(N)=O` [GSI]: the “albumin and CK19 positive cells” value in the data set on Notch pathway (10 μM, H9-derived day 27 progenitors with OP9, HGF 20 ng/ml, EGF 50 ng/ml) was “albumin and CK19 positive cells were found”. In the data set on Notch pathway (setting [2]), the ALB expression entry was “blocked the downregulation”, the “development of branched structures” value is reported as “inhibited” and the “proportion of CK19+ cells” value is “reduced”. Further, in the data set on Notch pathway (nine days of culture on OP9), the “increase in expression of Notch targets HES1, HES5 and HEY1” value is “block”. For the same compound, in the data set on Notch signaling, the “formation of duct-like structures and cysts” value was “prevented”. In addition, in the data set with Notch signaling (day 44), the “expression of genes associated with cholangiocyte development (CK19, Sox9 and CFTR)” value is “decrease”; the “expression of hepatocyte markers (ALB, AFP and CYP3A7)” value is given as “increase”.

On to HGF: hepatocyte growth factor, for which the “development of CK19+ clusters” value in data set [1] is recorded as “little effect”. In addition, the survival of aggregates entry with hepatic aggregates (10 ng/ml (reduced from 20 ng/ml) when cAMP was added) is reported as “promote survival of the aggregates”.

In the case of `Cc1cccc(-c2nn(C(=S)Nc3ccccc3)cc2-c2ccnc3ccccc23)n1` [A83-01], in the data set with smad2, the “inhibition of smad2, relative potency” value was “more potent”.

Turning to OSM: Oncostatin M, the “induction of expression of Phase 1 CYP enzymes, in particular CYP 3A4” value with hepatic aggregates (OSM maintained) is recorded as “inhibitory effect”.

With “TGFβ1: transforming growth factor beta 1”, the “development of CK19+ clusters” value in data set [1] was “increase in the size”. Further, the cholangiocyte branching result in data set [1] (hepatoblasts co-cultured with OP9) is “promotes cholangiocyte branching”.

Turning to `O=C1Nc2cc(Br)ccc2/C1=C1/Nc2ccccc2/C1=N\O` [BIO, 6-bromo-Indirubin-3′-Oxime], the “pluripotency of ESC” value with human and mouse ESC is given as “maintain pluripotency”.

(Values after patent US12129490B2, “Methods for generating hepatocytes and cholangiocytes from pluripotent stem cells” (UNIVERSITY HEALTH NETWORK, priority 2018, dated 2024).)
